Measured values reported in PubChem BioAssay AID248 (DTP/NCI, 2004).
Several values for one entry are separate records, joined by “and”; a condition that tells them apart may be missing. Equal entries are not always repeated. Inconclusive results and toxic doses are left out.

System: L1210 leukemia ip in BDF1 mice, survival T/C
Experiment: NCI In Vivo Anticancer Drug Screen. Data for tumor model L1210 Leukemia (intraperitoneal) in B6D2F1 (BDF1) mice
Conditions: endpoint: mean survival time, higher = longer survival
In short: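 Tumor was transplanted into mice, which were then dosed with test compound or vehicle alone. Survival was recorded for each group, and the treated figure was expressed relative to the control figure.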

[1] = dose: 200.0 mg/kg/injection, schedule: Q04DX003 (ip), vehicle: saline
[2] = dose: 100.0 mg/kg/injection, schedule: Q04DX002 (ip), vehicle: saline
[3] = dose: 100.0 mg/kg/injection, schedule: Q04DX003 (ip), vehicle: saline
[4] = dose: 400.0 mg/kg/injection, schedule: Q04DX003 (ip), vehicle: saline
[5] = dose: 100.0 mg/kg/injection, schedule: Q04DX002 (ip), vehicle: Klucel (hydroxypropylcellulose) (HPC)
[6] = dose: 200.0 mg/kg/injection, schedule: Q04DX002 (ip), vehicle: Klucel (hydroxypropylcellulose) (HPC)
[7] = dose: 400.0 mg/kg/injection, schedule: Q04DX002 (ip), vehicle: Klucel (hydroxypropylcellulose) (HPC)
[8] = dose: 100.0 mg/kg/injection, schedule: Q01DX009 (ip), vehicle: saline with Tween-80
[9] = dose: 200.0 mg/kg/injection, schedule: Q01DX009 (ip), vehicle: saline with Tween-80
[10] = dose: 400.0 mg/kg/injection, schedule: Q01DX009 (ip), vehicle: saline with Tween-80
[11] = dose: 100.0 mg/kg/injection, schedule: Q04DX003 (ip), vehicle: Klucel (hydroxypropylcellulose) (HPC)
[12] = dose: 200.0 mg/kg/injection, schedule: Q04DX003 (ip), vehicle: Klucel (hydroxypropylcellulose) (HPC)
[13] = dose: 400.0 mg/kg/injection, schedule: Q04DX003 (ip), vehicle: Klucel (hydroxypropylcellulose) (HPC)
[14] = dose: 100.0 mg/kg/injection, schedule: Q01DX009 (ip), vehicle: Klucel (hydroxypropylcellulose) (HPC)
[15] = dose: 200.0 mg/kg/injection, schedule: Q01DX009 (ip), vehicle: Klucel (hydroxypropylcellulose) (HPC)
[16] = dose: 400.0 mg/kg/injection, schedule: Q01DX009 (ip), vehicle: Klucel (hydroxypropylcellulose) (HPC)

SMILES: CS(=O)(=O)OCCBr
- T/C (dose: 12.5 mg/kg/injection, schedule: Q04DX003 (ip), vehicle: saline): 88 % of control
- T/C (dose: 25.0 mg/kg/injection, schedule: Q04DX003 (ip), vehicle: saline): 90 % of control
- T/C (dose: 50.0 mg/kg/injection, schedule: Q04DX003 (ip), vehicle: saline): 87 % of control
- T/C (dose: 100.0 mg/kg/injection, schedule: Q01DX001 (ip), vehicle: carboxymethylcellulose (CMC)): 103 % of control

SMILES: NC(=O)c1cn(C2OC(CO)C(O)C2O)c2nc(Cl)nc(N)c12 (stereo unspecified)
- T/C (dose: 3.12 mg/kg/injection, schedule: Q01DX009 (ip), vehicle: saline): 96 % of control
- T/C (dose: 6.25 mg/kg/injection, schedule: Q01DX009 (ip), vehicle: saline): 106 % of control
- T/C (dose: 12.5 mg/kg/injection, schedule: Q01DX009 (ip), vehicle: saline): 101 % of control
- T/C (dose: 25.0 mg/kg/injection, schedule: Q01DX009 (ip), vehicle: saline): 106 % of control
- T/C [1]: 115 % of control

SMILES: C[S+](C)CCS(=O)(=O)[O-]
- T/C [2]: 99 % of control
- T/C (dose: 200.0 mg/kg/injection, schedule: Q04DX002 (ip), vehicle: saline): 96 % of control
- T/C (dose: 400.0 mg/kg/injection, schedule: Q04DX002 (ip), vehicle: saline): 96 % of control

SMILES: C/C(=C(/CCO)SCCC(=O)c1ccc(C)cc1)N(C=O)Cc1cnc(C)nc1N
- T/C [3]: 97 % of control
- T/C [1]: 97 % of control
- T/C [4]: 93 % of control

SMILES: COc1ccc(/C=N\NC(=O)c2ccncc2)cc1O
- T/C [5]: 118 % of control
- T/C [6]: 106 % of control
- T/C [7]: 106 % of control

SMILES: NCC(=O)NC(CSSCC(N)C(=O)O)C(=O)O (stereo unspecified)
- T/C (dose: 25.0 mg/kg/injection, schedule: Q04DX002 (ip), vehicle: saline): 103 % of control
- T/C (dose: 50.0 mg/kg/injection, schedule: Q04DX002 (ip), vehicle: saline): 103 % of control
- T/C [2]: 100 % of control

SMILES: C[N+](C)=Cc1c[nH]c2ccccc12
- T/C (dose: 9.38 mg/kg/injection, schedule: Q01DX001 (ip), vehicle: steriod suspending solution): 98 % of control
- T/C (dose: 18.75 mg/kg/injection, schedule: Q01DX001 (ip), vehicle: steriod suspending solution): 94 % of control
- T/C (dose: 37.5 mg/kg/injection, schedule: Q01DX001 (ip), vehicle: steriod suspending solution): 98 % of control

SMILES: C/C(=N\NC(N)=S)c1ccccc1
- T/C (dose: 5.0 mg/kg/injection, schedule: Q01DX009 (ip), vehicle: Klucel (hydroxypropylcellulose) (HPC)): 97 % of control
- T/C (dose: 5.0 mg/kg/injection, schedule: Q04DX003 (ip), vehicle: Klucel (hydroxypropylcellulose) (HPC)): 97 % of control
- T/C (dose: 10.0 mg/kg/injection, schedule: Q01DX009 (ip), vehicle: Klucel (hydroxypropylcellulose) (HPC)): 110 % of control
- T/C (dose: 10.0 mg/kg/injection, schedule: Q04DX003 (ip), vehicle: Klucel (hydroxypropylcellulose) (HPC)): 103 % of control
- T/C (dose: 20.0 mg/kg/injection, schedule: Q01DX009 (ip), vehicle: Klucel (hydroxypropylcellulose) (HPC)): 105 % of control
- T/C (dose: 20.0 mg/kg/injection, schedule: Q04DX003 (ip), vehicle: Klucel (hydroxypropylcellulose) (HPC)): 98 % of control and 117 % of control
- T/C (dose: 30.0 mg/kg/injection, schedule: Q04DX003 (ip), vehicle: Klucel (hydroxypropylcellulose) (HPC)): 95 % of control
- T/C (dose: 40.0 mg/kg/injection, schedule: Q04DX003 (ip), vehicle: Klucel (hydroxypropylcellulose) (HPC)): 120 % of control

SMILES: CC1=C(CCCO)/C(=N/Nc2ccc([N+](=O)[O-])cc2[N+](=O)[O-])CCC1
- T/C (dose: 25.0 mg/kg/injection, schedule: Q04DX002 (ip), vehicle: saline with Tween-80): 97 % of control
- T/C (dose: 100.0 mg/kg/injection, schedule: Q01DX001 (ip), vehicle: saline with Tween-80): 105 % of control
- T/C (dose: 200.0 mg/kg/injection, schedule: Q01DX001 (ip), vehicle: saline with Tween-80): 87 % of control
- T/C (dose: 400.0 mg/kg/injection, schedule: Q01DX001 (ip), vehicle: saline with Tween-80): 92 % of control

SMILES: COc1cccc(CN)c1
- T/C (dose: 100.0 mg/kg/injection, schedule: Q04DX003 (ip), vehicle: saline with Tween-80): 99 % of control
- T/C (dose: 200.0 mg/kg/injection, schedule: Q04DX003 (ip), vehicle: saline with Tween-80): 100 % of control
- T/C (dose: 400.0 mg/kg/injection, schedule: Q04DX003 (ip), vehicle: saline with Tween-80): 94 % of control

SMILES: COc1ccc(Cl)cc1NC(=O)Oc1ccc(-c2ccccc2)cc1Cl
- T/C [8]: 99 % of control
- T/C [9]: 92 % of control
- T/C [10]: 91 % of control

SMILES: COc1cccc(C(=O)O)c1OC
- T/C (dose: 100.0 mg/kg/injection, schedule: Q04DX003 (ip), vehicle: saline sonified): 95 % of control
- T/C (dose: 200.0 mg/kg/injection, schedule: Q04DX003 (ip), vehicle: saline sonified): 95 % of control
- T/C (dose: 400.0 mg/kg/injection, schedule: Q04DX003 (ip), vehicle: saline sonified): 97 % of control

SMILES: OCCCCc1ccccc1
- T/C (dose: 100.0 mg/kg/injection, schedule: Q01DX001 (ip), vehicle: saline sonified): 95 % of control
- T/C (dose: 100.0 mg/kg/injection, schedule: Q01DX009 (ip), vehicle: saline sonified): 104 % of control
- T/C (dose: 200.0 mg/kg/injection, schedule: Q01DX001 (ip), vehicle: saline sonified): 101 % of control
- T/C (dose: 200.0 mg/kg/injection, schedule: Q01DX009 (ip), vehicle: saline sonified): 97 % of control
- T/C (dose: 400.0 mg/kg/injection, schedule: Q01DX001 (ip), vehicle: saline sonified): 111 % of control

SMILES: Cc1cc(NCCCN(C)C)c2c(c1N)C(=O)c1ccccc1C2=O
- T/C [11]: 88 % of control
- T/C [12]: 92 % of control
- T/C [13]: 92 % of control

SMILES: CCOC(=O)/C=C\CC(O)CC (stereo unspecified)
- T/C [14]: 105 % of control
- T/C [11]: 98 % of control
- T/C [15]: 105 % of control
- T/C [12]: 104 % of control
- T/C [16]: 118 % of control
- T/C [13]: 114 % of control

SMILES: COC(=O)C1=CC2c3ccccc3C1c1ccccc12
- T/C [8]: 89 % of control
- T/C [9]: 105 % of control
- T/C [10]: 98 % of control

SMILES: COc1ccc(/C=C/C(=O)c2cc(C(=O)O)c(OC)cc2OC)cc1OC
- T/C (dose: 12.5 mg/kg/injection, schedule: Q01DX009 (ip), vehicle: saline with Tween-80): 111 % of control
- T/C (dose: 25.0 mg/kg/injection, schedule: Q01DX009 (ip), vehicle: saline with Tween-80): 93 % of control
- T/C (dose: 50.0 mg/kg/injection, schedule: Q01DX009 (ip), vehicle: saline with Tween-80): 98 % of control
- T/C [8]: 98 % of control
- T/C [9]: 95 % of control

SMILES: O=NN(CCF)C(=O)Nc1c[nH]c(=O)[nH]c1=O
- T/C (dose: 20.0 mg/kg/injection, schedule: Q01DX001 (ip), vehicle: carboxymethylcellulose (CMC)): 178 % of control

SMILES: COc1ccc(C(=O)Nc2ccc(C3=NCCN3)cc2)cc1C(=O)Nc1ccc(C2=NCCN2)cc1
- T/C (dose: 3.75 mg/kg/injection, schedule: Q01DX Z (ip), vehicle: saline): 101 % of control
- T/C (dose: 7.5 mg/kg/injection, schedule: Q01DX Z (ip), vehicle: saline): 116 % of control
- T/C (dose: 30.0 mg/kg/injection, schedule: Q01DX Z (ip), vehicle: saline): 181 % of control
- T/C (dose: 60.0 mg/kg/injection, schedule: Q01DX Z (ip), vehicle: saline): 266 % of control
- T/C (dose: 120.0 mg/kg/injection, schedule: Q01DX Z (ip), vehicle: saline): 110 % of control

SMILES: NC(=O)CCC(C(=O)O)N1C(=O)C2C3CCC(C3)C2C1=O (stereo unspecified)
- T/C [3]: 98 % of control
- T/C [1]: 95 % of control
- T/C [4]: 95 % of control

SMILES: CC(COC(=O)c1ccccc1)(COC(=O)c1ccccc1)COC(=O)c1ccccc1
- T/C [14]: 96 % of control
- T/C [11]: 113 % of control
- T/C [15]: 104 % of control
- T/C [12]: 99 % of control
- T/C [16]: 107 % of control
- T/C [13]: 96 % of control

SMILES: CC(C)(C)NS(=O)(=O)CCl
- T/C [5]: 111 % of control
- T/C [6]: 104 % of control
- T/C [7]: 93 % of control

SMILES: CN(c1ccccc1)S(=O)(=O)c1ccc(NC(=O)CBr)cc1
- T/C (dose: 37.5 mg/kg/injection, schedule: Q01DX001 (ip), vehicle: Klucel (hydroxypropylcellulose) (HPC)): 86 % of control
- T/C (dose: 75.0 mg/kg/injection, schedule: Q01DX001 (ip), vehicle: Klucel (hydroxypropylcellulose) (HPC)): 93 % of control

SMILES: CCOC(=O)CCN(CC(C)C)C(=S)Nc1ccccc1
- T/C (dose: 100.0 mg/kg/injection, schedule: Q01DX Z (ip), vehicle: methylcellulose (MC)): 93 % of control

SMILES: Cc1ccc2nc(-c3ccc(F)cc3)cc(C(=O)O)c2c1
- T/C [3]: 92 % of control
- T/C [1]: 89 % of control
- T/C [4]: 95 % of control
